Measured values as given in US10912749B2, “Conjugate acid salt of N,N-dimethylglycine with organic acid, and composition and use thereof” (GUANGZHOU INSIGHTER BIOTECHNOLOGY CO., LTD., priority 2017, dated 2021).
Structures can show the parent of a compound that is named as a salt. Marks after values point to notes of the source that are not given here.

Assays:
[1] = High-humidity stability test; type: physicochemical; settings: for hygroscopicity (in words): 25° C. and RH 95%, weight gains at day 5 turned the samples into water-like status; for hygroscopic weight gain Day 5 (%) / hygroscopic weight gain Day 10 (%): 25° C., RH 95%±1%, mean value±standard error, three parallels
Procedure: Method: A KNO3 saturated solution (25° C., […]) was placed in the lower part of a constant-temperature and constant-humidity sealed container. The test samples, three parallels for each test sample, were placed at 25° C. and RH 95%±1% for 10 days, and their average weight gains were measured at day 5 and day 10.

grass carps = assay: Growth promotion experiment in aquatic feed; type: in vivo; settings: 450 ppm in feed, 8 weeks; for SR (%): survival rate
Procedure: Test fish: The experiment fish were grass carps, born at the year of the test, from Dafeng hatchery in Huizhou City, Guangdong Province. Healthy and lively grass carps of the same size were reared in big net cages (4×2×1.5 m^3) for four weeks before the breeding experiment. The experiment system included floating small net cages (1.1×1.1×1.1 m^3), each small net cage was provided with an aerator and aerated 24 hours every day. […] 384 fish which were similar in body weight and had been starved for 1 day were randomly divided into 8 groups, 4 replicates in each group and 12 fish in each replicate. The fish of each replicate were weighed and transferred to […] net cages, and fed with different test feeds respectively.
Experiment feeds: The experiment feeds were prepared according to Table 6. The groups were respectively provided with different conjugate acid salts of N,N-dimethylglycine with metal and organic acid in the same concentration according to Table 7. Raw materials of the feed were ultra-pulverized, and then turned into floating expanded feed having a particle size of 3 mm by using a feed extruder from Jiangsu Muyang Group Co., Ltd. wherein the extruding temperature was 130° C., and 3% of soybean oil was sprayed on the feed using an oil sprayer. The feed was then sealed and stored in a cool place for later use.
Test management: The experiment was carried out with diet restriction, the diet amount was adjusted once a week, the feeding level (based on initial weight) of each group was exactly the same, and feeding was conducted twice every day (at 7:30 and 15:00). The experiment was carried out for 8 weeks. During the experiment, water quality was monitored regularly to maintain the following conditions: water temperature 26.88±3.08° C., DO>5.0 mg O L^−1, pH 7.8, ammonia nitrogen <0.50 mg N L^−1, and nitrite nitrogen <0.05 mg N L^1.
Parameter statistics: In the experiment, the fish in each net cage were weighed as a whole after starved for 1 day so as to calculate their weight gain (WG, %), feed conversion ratio (FCR) and survival rate (SR, %), through the following formula. Weight gain (WG, %)=100×(average final weight−average initial weight)/average initial weight Feed conversion ratio (FCR)=feed intake/fish weight gain Survival rate (SR, %)=100×fish amount at the end of the test/fish amount at the beginning of the test

Sanhuang broilers = assay: Breeding experiment in broiler feed (production performance); type: in vivo
Procedure: The experiment was carried out by single-factor randomized design. 1080 22-day-old Sanhuang broilers having similar body weight (averagely 153 g) were collected and randomly divided into 9 groups, 6 replicates in each group, 20 broilers in each replicate, with equal numbers of males and females. The henhouse and utensils were disinfected before the experiment. The broilers were kept in cages in the same henhouse under the same breeding conditions during the experiment. The basic diets mainly composed of corn and soybean meal, and no other antioxidant ingredients and growth promoters were added during the whole breeding process. The groups included a blank group, a control group, and experiment groups 1-7. […] For each replicate, the broilers were weighed (stopped feeding for 12 hours while water supply was maintained) at 42-day-old and their feed consumptions were recorded so as to calculate the average daily feed intake (ADFI), average daily weight gain (ADG) and feed conversion ratio (FCR). The experiment data were analyzed with SPSS18 software. The data were first analyzed by single factor analysis of variance (ANOVA), and if the differences between the groups were significant, multiple comparisons were performed using Duncan's method wherein the significance level was 0.05.

Compound	hygroscopicity (in words) [1]	hygroscopic weight gain Day 5 (%) [1] [%]	hygroscopic weight gain Day 10 (%) [1] [%]	(FCR) (grass carps)	Final weight (grass carps) [g]	Weight gain (%) (grass carps)	SR (%) (grass carps)	breeding effect with respect to feed conversion efficiency compared with sodium N,N-dimethylglycinate (Sanhuang broilers)
Calcium N,N-dimethylglycinate [Sample 3]	very high hygroscopicity	38.40 ± 0.22	41.83 ± 0.35					
CN(C)CC(=O)[O][Zn][O]C(=O)CN(C)C [Sample 11, Conjugate acid salt of zinc N,N-dimethylglycinate with fumaric acid]			2.88 ± 0.22					
CCCCCCCCCCCCCC(=O)O.CCCCCCCCCCCCCC(=O)O.CN(C)CC(=O)[O-].CN(C)CC(=O)[O-].[Ca+2] [Sample 7, Conjugate acid salt of calcium N,N-dimethylglycinate with tetradecanoic acid]			3.06 ± 0.29	1.46 ± 0.04	585.22 ± 11.23	134.40 ± 2.90	73.00 ± 3.63^b %	
CN(C)CC(=O)O.Cl [Sample 1, N,N-dimethylglycine hydrochloride]	very high hygroscopicity	79.86 ± 0.94	80.69 ± 0.59					
CN(C)CC(=O)[O-].CN(C)CC(=O)[O-].O=C(O)c1ccccc1.O=C(O)c1ccccc1.[Zn+2] [Sample 10, Conjugate acid salt of zinc N,N-dimethylglycinate with benzoic acid]				1.45 ± 0.03	597.66 ± 9.69	133.08 ± 4.70	78.04 ± 4.21^b %	
CN(C)CC(=O)[O-].CN(C)CC(=O)[O-].O=C(O)/C=C/C(=O)O.[Ca+2] [Sample 6, Conjugate acid salt of calcium N,N-dimethylglycinate with fumaric acid]				1.48 ± 0.03	589.33 ± 12.75	138.98 ± 3.02	83.90 ± 5.30^b %	
CN(C)CC(=O)[O-].CN(C)CC(=O)[O-].O=C(O)c1ccccc1.O=C(O)c1ccccc1.[Ca+2] [Sample 5, Conjugate acid salt of calcium N,N-dimethylglycinate with benzoic acid]			3.69 ± 0.28	1.48 ± 0.03	586.87 ± 10.44	134.96 ± 2.82	83.10 ± 3.65^b %	equivalent to that of sodium N,N-dimethylglycinate
CN(C)CC(=O)[O-].CN(C)CC(=O)[O-].O=C(O)c1ccccc1.O=C(O)c1ccccc1.[Cu+2] [Sample 8, Conjugate acid salt of copper N,N-dimethylglycinate with benzoic acid]				1.41 ± 0.03	598.68 ± 9.66	143.40 ± 10.09	80.04 ± 3.80^b %	
CN(C)CC(=O)[O-].CN(C)CC(=O)[O-].O=C(O)/C=C/C(=O)O.[Zn+2] [Sample 11, Conjugate acid salt of zinc N,N-dimethylglycinate with fumaric acid]				1.44 ± 0.02	600.00 ± 9.30	139.98 ± 3.58	84.94 ± 4.26^b %	
CN(C)CC(=O)[O-].CN(C)CC(=O)[O-].O=C(O)/C=C/C(=O)O.[Cu+2] [Sample 9, Conjugate acid salt of copper N,N-dimethylglycinate with fumaric acid]				1.43 ± 0.03	598.12 ± 9.27	139.12 ± 2.34	83.96 ± 5.68^b %	
CN(C)CC(=O)[O-].[Na+] [Sample 2, Sodium N,N-dimethylglycinate]	very high hygroscopicity	49.09 ± 1.14	52.44 ± 0.48					
